Assay [1] deals with Candida albicans. The experiment in a line: Antifungal activity against Candida albicans CAF2-1 after overnight incubation by MTT based bioautography method. Type of assay: functional. In general terms: Tetrazolium dyes change colour on reduction, which living cells bring about.
Assay [2] deals with Candida albicans. The experiment in a line: Antifungal activity against Candida albicans CAF2-1 after 24 hrs by spectrophotometry based broth dilution assay. Type of assay: functional. As to conditions: CAF2-1, 24 h.
For assay [3], the system named is Candida albicans. The experiment in a line: Antibiofilm activity against Candida albicans CAF2-1 after 48 hrs by XTT assay. Type of assay: functional. As to conditions: CAF2-1, 48 h.
Assay [4] has as its system Candida albicans. As to the kind of experiment: Antifungal activity against hypersusceptible Candida albicans DSY2621 mutant after overnight incubation by MTT based bioautography method. In kind it is functional.
Assay [5] concerns Candida albicans. The experiment in a line: Induction of ultrastructural changes in Candida albicans CAF2-1 assessed as breakage zones of plasma membrane at 16 ug/ml after 18 hrs by uranyl acetate/lead citrate staining based transmission electron microscopy. Type of assay: functional, organism-based.
For assay [6], the system named is Candida albicans. As to the kind of experiment: Induction of ultrastructural changes in Candida albicans CAF2-1 assessed as retraction of cytoplasm at 16 ug/ml after 18 hrs by uranyl acetate/lead citrate staining based transmission electron microscopy. Type of assay: functional, organism-based.
The subject of assay [7] is Candida albicans. The experiment in a line: Induction of ultrastructural changes in Candida albicans CAF2-1 assessed as disorganization and disruption of nuclear membrane at 16 ug/ml after 18 hrs by uranyl acetate/lead citrate staining based transmission electron microscopy. Type of assay: functional, organism-based.
For assay [8], the system named is Candida albicans. As to the kind of experiment: Induction of ultrastructural changes in Candida albicans CAF2-1 assessed as cytoplasmic content dis-organization at 16 ug/ml after 18 hrs by uranyl acetate/lead citrate staining based transmission electron microscopy. Type of assay: functional, organism-based.
The test system of assay [9] is Candida albicans. The experiment in a line: Induction of ultrastructural changes in Candida albicans CAF2-1 assessed as reduction in budding initiation at 16 ug/ml after 18 hrs by uranyl acetate/lead citrate staining based transmission electron microscopy. In kind it is functional, organism-based.
The subject of assay [10] is Candida albicans. The experiment in a line: Induction of ultrastructural changes in Candida albicans CAF2-1 assessed as cytoplasmic content dis-organization with disappearance of mitochondria at 16 ug/ml after 18 hrs by uranyl acetate/lead citrate staining based transmission electron microscopy. In kind it is functional, organism-based.
In assay [11] the test system is Candida albicans. The experiment in a line: Induction of ultrastructural changes in Candida albicans CAF2-1 assessed as cytoplasmic content dis-organization with disappearance of golgi apparatus at 16 ug/ml after 18 hrs by uranyl acetate/lead citrate staining based transmission electron microscopy. Type of assay: functional, organism-based.
In assay [12] the test system is Candida albicans. As to the kind of experiment: Induction of ultrastructural changes in Candida albicans CAF2-1 assessed as cytoplasmic content dis-organization with disappearance of ribosomes at 16 ug/ml after 18 hrs by uranyl acetate/lead citrate staining based transmission electron microscopy. Type of assay: functional, organism-based.

In brackets after ≈: the same amount, converted by molar mass. Activity calls are given as the source filed them. The rule behind the calls is not given here.

Consider `COc1ccc(-c2coc3cc(O)c(OC)cc3c2=O)cc1` [CASTANIN], for which the MIC was more than 50 µg in the assay on Candida albicans [1], more than 32 µg/mL with Candida albicans [2] and more than 50 µg/mL against Candida albicans [3].
Consider `COc1c(O)c2c(c3c1[C@H](O)COC3=O)CC[C@H]1C(C)(C)CCC[C@]21C`, for which the MIC against Candida albicans [4] was found to be 5 µg; against Candida albicans [1], 2 µg; with Candida albicans [2], 32 µg/mL (≈ 88.8 µM); with Candida albicans [3], 50 µg/mL (≈ 139 µM).
For `CC1(C)CCC[C@]2(C)c3c(O)c(O)c4c(c3CC[C@@H]12)C(=O)O[C@H]4CO`, the MIC is 8 µg against Candida albicans [4], more than 50 µg against Candida albicans [1], 32 µg/mL (≈ 92.4 µM) against Candida albicans [2] and 25 µg/mL (≈ 72.2 µM) with Candida albicans [3]. The outcome in the assay on Candida albicans [5], in the assay on Candida albicans [6], in the assay on Candida albicans [7], with Candida albicans [8], with Candida albicans [9] and with Candida albicans [10] was Active. Also, the outcome in the assay on Candida albicans [11] and with Candida albicans [12] was Active.
`COc1c(O)c2c(c3c(=O)occc13)CC[C@H]1C(C)(C)CCC[C@]21C`: the figures for the MIC in the assay on Candida albicans [1], with Candida albicans [2] and in the assay on Candida albicans [3] were more than 50 µg, more than 32 µg/mL and more than 50 µg/mL, respectively.
For `COc1c(O)c2c(c3c1CCOC3=O)CC[C@H]1C(C)(C)C(=O)CC[C@]21C`, the MIC was more than 50 µg against Candida albicans [4], more than 50 µg in the assay on Candida albicans [1], more than 32 µg/mL against Candida albicans [2] and more than 50 µg/mL in the assay on Candida albicans [3].
Regarding `COc1c(O)c2c(c3c1CCOC3=O)CC[C@H]1C(C)(C)CCC[C@]21C`, the MIC against Candida albicans [4] is more than 50 µg; in the assay with Candida albicans [1], more than 50 µg; against Candida albicans [2] it was more than 32 µg/mL; against Candida albicans [3] it was more than 50 µg/mL.
Consider `COc1c(O)c2c(c3c1[C@@H](CO)OC3=O)CC[C@H]1[C@@H]3C[C@@H]3CC[C@]21C`, for which the results for the MIC against Candida albicans [2] and with Candida albicans [3] were more than 32 µg/mL and 50 µg/mL (≈ 145 µM), respectively.
For `COc1c(O)c2c(c3c1[C@@H](CO)OC3=O)CC[C@H]1C(C)(C)CCC[C@]21C`, the MIC against Candida albicans [4] is 20 µg; in the assay with Candida albicans [1], more than 50 µg; in the assay with Candida albicans [2], more than 32 µg/mL; with Candida albicans [3] it was more than 50 µg/mL.
`CC1(C)CCC[C@]2(C)c3c(O)c(O)c4c(c3C=C[C@@H]12)C(=O)O[C@@H]4CO`: the MIC with Candida albicans [4] is more than 50 µg; against Candida albicans [1] it was more than 50 µg; with Candida albicans [2] it was more than 32 µg/mL; against Candida albicans [3] it was 50 µg/mL (≈ 145 µM).
In the case of `COc1c(O)c2c(c3c(=O)occc13)CC[C@H]1C(C)(C)C(=O)CC[C@]21C`, the MIC in the assay on Candida albicans [4] was 10 µg; with Candida albicans [1], more than 50 µg; in the assay with Candida albicans [2] it was more than 32 µg/mL; in the assay with Candida albicans [3] it was more than 50 µg/mL.
As for `C[C@H]1C(CCO)=C(O)C(=O)[C@H]2[C@H]1CC[C@H]1C(C)(C)CCC[C@]21C`, the MIC is less than 20 µg against Candida albicans [4], more than 32 µg/mL with Candida albicans [2] and more than 50 µg/mL in the assay with Candida albicans [3].
Take `CC1(C)CCC[C@]2(C)c3c(O)c(O)c4c(c3CC[C@@H]12)C(=O)OCC4`: the MIC in the assay with Candida albicans [4] is 8 µg; in the assay with Candida albicans [1], more than 50 µg; against Candida albicans [2], more than 32 µg/mL; with Candida albicans [3] it was 50 µg/mL (≈ 151 µM).
The matching figures for `COc1c(O)c2c(c3c1[C@@H](CO)OC3=O)CC[C@H]1C(C)(C)C(=O)CC[C@]21C`: more than 50 µg, more than 50 µg, more than 32 µg/mL and more than 50 µg/mL.
Take `CC1(C)CCC[C@]2(C)c3c(O)c(O)c4ccoc(=O)c4c3CC[C@@H]12`: the MIC is more than 32 µg/mL in the assay with Candida albicans [2] and 50 µg/mL (≈ 152 µM) against Candida albicans [3].
In the case of `Clc1ccc(COC(Cn2ccnc2)c2ccc(Cl)cc2Cl)c(Cl)c1` (stereo not given) [MICONAZOLE], the MIC against Candida albicans [4] stood at 0.0006 µg; in the assay with Candida albicans [1], 0.005 µg; against Candida albicans [2] it was 0.0156 µg/mL (≈ 0.0375 µM).

The record behind these values is ChEMBL document CHEMBL3763141, “Anti-Candida Cassane-Type Diterpenoids from the Root Bark of Swartzia simplex” (2015).
